Source: patent US7576076B2, “Modified pyrimidine glucocorticoid receptor modulators” (Corcept Therapeutics, Inc., priority 2004, dated 2009)

These molecules were tested against T1, human recombinant glucocorticoid receptor (Homo sapiens, UniProt P04150) (assay: Glucocorticoid receptor binding displacement assay with 3H-dexamethasone). Settings: Ki.
T1 construct: This GR was a full-length steroid hormone receptor; host or cells: recombinant baculovirus-infected insect cells
T1 sequence (P04150 1-777): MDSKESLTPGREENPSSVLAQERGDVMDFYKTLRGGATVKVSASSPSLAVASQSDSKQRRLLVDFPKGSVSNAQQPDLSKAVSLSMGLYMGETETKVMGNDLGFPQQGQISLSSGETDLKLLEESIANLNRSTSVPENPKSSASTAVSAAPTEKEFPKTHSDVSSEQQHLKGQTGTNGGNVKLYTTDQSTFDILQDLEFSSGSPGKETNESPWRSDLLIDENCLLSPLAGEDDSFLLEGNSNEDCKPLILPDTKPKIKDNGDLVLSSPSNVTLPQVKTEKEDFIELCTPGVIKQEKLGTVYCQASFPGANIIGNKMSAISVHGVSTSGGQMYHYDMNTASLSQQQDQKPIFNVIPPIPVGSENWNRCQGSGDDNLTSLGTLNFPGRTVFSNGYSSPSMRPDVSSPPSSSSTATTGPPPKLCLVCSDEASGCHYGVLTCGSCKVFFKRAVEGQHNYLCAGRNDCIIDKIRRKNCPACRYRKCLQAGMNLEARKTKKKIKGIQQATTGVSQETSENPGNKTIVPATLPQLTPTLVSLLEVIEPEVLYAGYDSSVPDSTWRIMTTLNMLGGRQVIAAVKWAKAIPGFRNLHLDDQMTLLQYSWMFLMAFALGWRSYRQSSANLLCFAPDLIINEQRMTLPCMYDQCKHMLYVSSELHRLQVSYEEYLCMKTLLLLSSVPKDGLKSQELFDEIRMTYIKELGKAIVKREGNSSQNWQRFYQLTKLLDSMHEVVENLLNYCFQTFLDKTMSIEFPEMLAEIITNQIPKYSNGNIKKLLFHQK
Description: The source of the receptor was recombinant baculovirus-infected insect cells. This GR was a full-length steroid hormone receptor likely to be associated with heat-shock and other endogenous proteins.
For the Primary Screen, test compounds were tested at 1 μM in duplicate. These compounds were diluted from 10 mM stock in 100% DMSO. After dilution to 100 μM, 5 μl were added to 245 μl assay buffer to obtained 2 μM compound and 2% DMSO.
For the IC50 determinations, test compounds were tested at 6 concentrations in duplicate (concentration range depends on % inhibition binding that was obtained in the Primary Screen,). Test compounds were diluted from 10 mM stock in 100% DMSO. The tested solutions were prepared at 2×final assay concentration in 2% DMSO/assay buffer.
All reagents and the assay plate were kept on ice during the addition of reagents. […] After the additions, the incubation mixture was mixed and incubated for 2.5 hrs at 4° C.
After 2.5 hrs incubation, unbound counts were removed with dextran coated charcoal (DCC) as follows: 25 μl of DCC solution (10% DCC in assay buffer) was added to all wells and mixed (total volume 225 μl). The plate was centrifuged at 4000 rpm for 10 minutes at 4° C. 75 μl of the supernatants (i.e. ⅓ of total volume) was carefully pipetted into an optiplate. 200 μl of scintillation cocktail were added (Microscint-40, Packard Bioscience. B.V.). The plate was vigorously shaken for approx. 10 minutes and counted on Topcount.
The IC50 values were converted to Ki (the inhibition constant) using the Cheng-Prusoff equation.
Reagents: Assay buffer: 10 mM potassium phosphate buffer pH 7.6 containing 5 mM DTT, 10 mM sodium molybdate, 100 μM EDTA and 0.1% BSA.

| Compound | Ki [µM] |
| --- | --- |
| Cn1c(=O)[nH]c(N2CCC(Oc3ccccc3)CC2)c(Cc2ccccc2)c1=O [Compound 37] | 0.01 to 0.1 |

Same assay, conditions: displacement of 2.5 nM 3H-dexamethasone; IC50 converted to Ki by Cheng-Prusoff; read-out: Ki

| Compound | Ki [µM] |
| --- | --- |
| Cn1c(=O)[nH]c(N2CCC(O)CC2)c(Cc2cccc(C(F)(F)F)c2)c1=O [Compound 1] | > 0.1 |
| CCOC(=O)N1CCN(c2[nH]c(=O)n(C)c(=O)c2Cc2cccc(C(F)(F)F)c2)CC1 [Compound 2] | > 0.1 |
| Cn1c(=O)[nH]c(N2CCC(Cc3ccccc3)CC2)c(Cc2ccccc2Br)c1=O [Compound 3] | > 0.1 |
| Cn1c(=O)[nH]c(N2CCC(Cc3ccccc3)CC2)c(Cc2ccccc2Br)c1=O [Compound 4] | 0.01 to 0.1 |
| Cn1c(=O)[nH]c(N2CCC(Cc3ccccc3)CC2)c(Cc2ccccc2)c1=O [Compound 5] | 0.01 to 0.1 |
| Cn1c(=O)[nH]c(N2CCC(Cc3ccccc3)CC2)c(Cc2ccc(F)cc2F)c1=O [Compound 6] | 0.01 to 0.1 |
| Cn1c(=O)[nH]c(N2CCC(Cc3ccccc3)CC2)c(Cc2ccc(Br)cc2)c1=O [Compound 7] | 0.01 to 0.1 |
| Cn1c(=O)[nH]c(N2CCC(Cc3ccccc3)CC2)c(Cc2ccc(F)cc2Cl)c1=O [Compound 8] | > 0.1 |
| Cn1c(=O)[nH]c(N2CCC(Cc3ccccc3)CC2)c(Cc2ccc(C#N)cc2)c1=O [Compound 9] | > 0.1 |
| Cc1ccc(Cc2c(N3CCC(Cc4ccccc4)CC3)[nH]c(=O)n(C)c2=O)cc1 [Compound 10] | 0.01 to 0.1 |
| CC(C)=CCc1c(N2CCC(Cc3ccccc3)CC2)[nH]c(=O)n(C)c1=O [Compound 11] | > 0.1 |
| Cn1c(=O)[nH]c(N2CCC(Cc3ccccc3)CC2)c(Cc2ccc(C(C)(C)C)cc2)c1=O [Compound 13] | > 0.1 |
| Cn1c(=O)[nH]c(N2CCC(Cc3ccccc3)CC2)c(Cc2ccccc2-c2ccccc2)c1=O [Compound 14] | > 0.1 |
| Cn1c(=O)[nH]c(N2CCN(Cc3ccccc3)CC2)c(Cc2ccccc2)c1=O [Compound 16] | > 0.1 |
| Cn1c(=O)[nH]c(N2CCC(c3ccccc3)CC2)c(Cc2ccccc2)c1=O [Compound 17] | 0.01 to 0.1 |
| O=c1[nH]c(N2CCC(Cc3ccccc3)CC2)c(Cc2ccccc2)c(=O)[nH]1 [Compound 18] | 0.01 to 0.1 |
| Cn1c(=O)[nH]c(N2CCC(O)(Cc3ccccc3)CC2)c(Cc2ccccc2)c1=O [Compound 19] | > 0.1 |
| Cn1c(=O)[nH]c(N2CCN(C(c3ccccc3)c3ccccc3)CC2)c(Cc2ccccc2)c1=O [Compound 21] | > 0.1 |
| O=c1[nH]c(N2CCN(Cc3ccccc3)CC2)c(Cc2ccccc2)c(=O)[nH]1 [Compound 22] | > 0.1 |

| Compound | Ki [µM] |
| --- | --- |
| O=c1[nH]c(N2CCC(Cc3ccccc3)CC2)c(Cc2cccc(Cl)c2)c(=O)n1Cc1ccccc1 [Compound 24] | 0.01 to 0.1 |
| O=c1[nH]c(N2CCC(Cc3ccccc3)CC2)c(Cc2cccc(Cl)c2)c(=O)n1-c1ccccc1 [Compound 25] | > 0.1 |
| CC(C)Cn1c(=O)[nH]c(N2CCC(Cc3ccccc3)CC2)c(Cc2cccc(Cl)c2)c1=O [Compound 26] | > 0.1 |
| O=c1[nH]c(N2CCC(c3ccccc3)CC2)c(Cc2cccc(Cl)c2)c(=O)n1Cc1ccccc1 [Compound 27] | > 0.1 |
| Cn1c(=O)[nH]c(N2CCC(c3ccccc3)CC2)c(CCc2ccccc2)c1=O [Compound 28] | > 0.1 |
| CCn1c(=O)[nH]c(N2CCC(Cc3ccccc3)CC2)c(Cc2cccc(Cl)c2)c1=O [Compound 29] | > 0.1 |
| CCn1c(=O)[nH]c(N2CCC(c3ccccc3)CC2)c(Cc2cccc(Cl)c2)c1=O [Compound 30] | > 0.1 |
| O=c1[nH]c(N2CCC(c3ccccc3)CC2)c(Cc2ccccc2)c(=O)[nH]1 [Compound 31] | < 0.01 |
| O=c1[nH]c(N2CCC(c3ccccc3)CC2)c(Cc2ccccc2Cl)c(=O)[nH]1 [Compound 33] | < 0.01 |
| Cn1c(=O)[nH]c(N2CCC(c3ccccc3)CC2)c(Cc2ccccc2Cl)c1=O [Compound 34] | 0.01 to 0.1 |
| O=c1[nH]c(N2CCC(c3ccccc3)CC2)c(Cc2cccc(Cl)c2)c(=O)[nH]1 [Compound 35] | < 0.01 |
| O=c1[nH]c(N2CCC(c3ccccc3)CC2)c(Cc2ccc(Cl)cc2)c(=O)[nH]1 [Compound 36] | 0.01 to 0.1 |
| O=c1[nH]c(N2CCC(c3ccccc3)CC2)c(Cc2cccc(Br)c2)c(=O)[nH]1 [Compound 38] | 0.01 to 0.1 |
| COc1cccc(C2CCN(c3[nH]c(=O)[nH]c(=O)c3Cc3ccccc3)CC2)c1 [Compound 39] | < 0.01 |
| COc1ccc(C2CCN(c3[nH]c(=O)[nH]c(=O)c3Cc3ccccc3)CC2)cc1 [Compound 40] | 0.01 to 0.1 |
| COc1ccccc1C1CCN(c2[nH]c(=O)[nH]c(=O)c2Cc2ccccc2)CC1 [Compound 41] | < 0.01 |
| O=c1[nH]c(N2CCC(c3c[nH]c4ccccc34)CC2)c(Cc2ccccc2)c(=O)[nH]1 [Compound 42] | 0.01 to 0.1 |
| CC(=O)Nc1ccc(C2CCN(c3[nH]c(=O)[nH]c(=O)c3Cc3ccccc3)CC2)cc1 [Compound 46] | 0.01 to 0.1 |
| N#Cc1cccc(Cc2c(N3CCC(c4ccccc4)CC3)[nH]c(=O)[nH]c2=O)c1 [Compound 48] | 0.01 to 0.1 |

The molecules below were run against T2, endogenous glucocorticoid receptors in SW1353/MMTV-5 cells (Homo sapiens, UniProt P04150) (assay: GR functional assay using SW1353/MMTV-5 cells (luciferase reporter)). Settings: not given.
T2 construct: contains endogenous glucocorticoid receptors; endogenous in cells; host or cells: SW1353/MMTV-5 (human chondrosarcoma, stably transfected with the pMAMneo-Luc reporter only)
T2 sequence (P04150 1-777): T1 sequence (P04150 1-777)
Type: cell-based
Description: SW1353/MMTV-5 is an adherent human chondrosarcoma cell line that contains endogenous glucocorticoid receptors. It was transfected with a plasmid (pMAMneo-Luc) encoding firefly luciferase located behind a glucocorticoid-responsive element (GRE) derived from a viral promoter (long terminal repeat of mouse mammary tumor virus). A stable cell line SW1353/MMTV-5 was selected with geneticin, which was required to maintain this plasmid.
SW1353/MMTV-5 cells were distributed in 96-well plates and incubated in medium (without geneticin) for 24 hrs (in the absence of CO2).

| Compound | Ki [µM] |
| --- | --- |
| O=c1[nH]c(N2CCC(c3ccccc3)CC2)c(Cc2ccccc2)c(=O)[nH]1 [Compound 31] | 0.01 to 0.1 |
| O=c1[nH]c(N2CCC(c3ccccc3)CC2)c(Cc2ccccc2Cl)c(=O)[nH]1 [Compound 33] | 0.01 to 0.1 |
| Cn1c(=O)[nH]c(N2CCC(c3ccccc3)CC2)c(Cc2ccccc2Cl)c1=O [Compound 34] | > 0.1 |
| O=c1[nH]c(N2CCC(c3ccccc3)CC2)c(Cc2cccc(Cl)c2)c(=O)[nH]1 [Compound 35] | 0.01 to 0.1 |
| O=c1[nH]c(N2CCC(c3ccccc3)CC2)c(Cc2ccc(Cl)cc2)c(=O)[nH]1 [Compound 36] | > 0.1 |
| O=c1[nH]c(N2CCC(c3ccccc3)CC2)c(Cc2cccc(Br)c2)c(=O)[nH]1 [Compound 38] | 0.01 to 0.1 |
